Assay results reported in patent publication US20210361733A1, “Prevention and Treatment of SARS-CoV-2 Infection by Mentha piperita and Flos chrysanthemi Extracts alone, and their Combination” (priority 2021, published 2021).
“Also recorded” adds a separate entry of the source.

Experiments:
[1] = test system: Vero cell line; assay: Cytotoxicity of herbal extracts on Vero cell line, MTT assay; settings: concentration not printed
[2] = test system: SARS-CoV-2; format: cell-based
[3] = test system: SARS-CoV-2; settings: prophylactic/therapeutic (full-time) setting, at 37° and 4° C., by CPE and RT-PCR; cited from earlier work

Compound: CCN(CC)CCCC(C)Nc1ccnc2cc(Cl)ccc12 (stereo not drawn) [Chloroquine phosphate]
- cytotoxicity / percent inhibition (MTT assay) [1]: non-toxic
- cytotoxicity / percent inhibition (MTT assay) ([1]; listed as Chloroquine): no inhibition
- viral load inhibition (increasing Cq value, decreasing percent viral copy number) ([2]; reference drugs: Chloroquine phosphate 9.69 μM/mL, Remdesivir 8.297 μM/mL): viral load inhibition
- inhibition of SARS-CoV-2 ([2]; viral full entry and post entry treatment points): inhibition of SARS-CoV-2

Compound: CCC(CC)COC(=O)[C@H](C)N[P@](=O)(OC[C@H]1O[C@@](C#N)(c2ccc3c(N)ncnn23)[C@H](O)[C@@H]1O)Oc1ccccc1 [Remdesivir]
- cytotoxicity / percent inhibition (MTT assay) [1]: no inhibition; also recorded: non-toxic

Compound: CCN(CCO)CCCC(C)Nc1ccnc2cc(Cl)ccc12 (stereo not drawn) [hydroxychloroquine]
- antiviral activity [3]: significant antiviral activity
